Read-outs that look alike come from different tables or passages of the source.
Columns and labels:
[1] = Liver Microsome Stability Assay, mouse; type: in vitro ADME; conditions: mouse liver microsomes 1.0 mg/mL, 1.0 uM compound, 37° C., 1 mM NADPH
Method: (§1) Stability of a compound was assessed in the presence of liver microsomes from various sources—mouse, rat, monkey and human liver microsomes. 1.0 uM compound, 0.4% DMSO in 0.1 M Potassium Phosphate with 1.0 mg/mL liver microsomes, were incubated at 37° C. with or without 1 mM NADPH. The samples were quenched at 0, and 30 minutes.

[2] = Liver Microsome Stability Assay, human; type: in vitro ADME; conditions: human liver microsomes 1.0 mg/mL, 1.0 uM compound, 37° C., 1 mM NADPH
Method: as §1

[3] = system: multiple myeloma cell line U266B1; assay: U266 Cell Viability Assay; type: cell-based; conditions: Homo sapiens
Method: (§2) The human multiple myeloma cell line U266B1 was cultured in RPMI 1640 media supplemented with 10% fetal bovine serum, 2 mM Glutamine, and 1× Penicillin/Streptomycin. Cells were plated in 384-well tissue culture plates and treated with compound dilutions in DMSO/media. Plates were incubated at 37° C., 5% CO2 for 48 hours. After 48 hours, Celltiter-Glo® (Promega) was added to each well and luciferase signal was quantified using Tecan Infinite M1000 Pro for cell viability determination.
(§3) For chemical structures that include one or more stereoisomers, but are illustrated without indicating stereochemistry, the assay data refers to a mixture of stereoisomers.

[4] = Liver Microsome Stability Assay, rat; type: in vitro ADME; conditions: rat liver microsomes 1.0 mg/mL, 1.0 uM compound, 37° C., 1 mM NADPH
Method: as §1

[5] = system: IL6R-ss+10aa/Gaussia Luciferase; assay: Dox-induced IL-6R-ss-Gluc Assay; type: cell-based
Source text: Flp-In 293 T-REx™ cells were transfected with pcDNATM5/FRT/TO plasmid inserted with cDNA encoding Gaussia Luciferase fused to the 3′ end of cDNA encoding IL6R signal sequence plus 10 amino acids (N-[…]-C). Transfected cells were selected for resistance to the selectable markers Hygromycin and Blasticidin to create a stable cell line that contained the IL6R-ss+10aa/Gaussia Luciferase cDNA insert whose expression was regulated under the T-REx™ system. The day before assay, cells were trypsinized and plated in 384-well tissue culture plates. The next day, compound dilutions in DMSO/media containing doxycycline were added to the wells and incubated at 37° C., 5% CO2.
as §3

[6] = system: PD1-ss+10aa/Gaussia Luciferase; assay: Dox-Induced PD1-ss-Gluc Assay; type: cell-based
Source text: Flp-In 293 T-REx™ cells were transfected with pcDNA™5/FRT/TO plasmid inserted with cDNA encoding Gaussia Luciferase fused to the 3′ end of cDNA encoding PD1 signal sequence plus 10 amino acids (N-[…]-C) (SEQ ID NO: 1). Transfected cells were selected for resistance to the selectable markers Hygromycin and Blasticidin to create a stable cell line that contained the PD1-ss+10aa/Gaussia Luciferase cDNA insert whose expression was regulated under the T-REx™ system. The day before assay, cells were trypsinized and plated in 384-well tissue culture plates. The next day, compound dilutions in DMSO/media containing doxycycline were added to the wells and incubated at 37° C., 5% CO2.
as §3

CD47(ss + 10)Gluc = assay: Dox-Induced CD47-ss-Gluc Assay; type: cell-based
[7] = system: IL-2-FL/Gaussia Luciferase; assay: Dox Inducible IL2-FL-Gluc Assay; type: cell-based
Source text: Flp-In 293 T-REx™ cells were transfected with pcDNA™5/FRT/TO plasmid inserted with cDNA encoding Gaussia Luciferase fused to the 3′ end of cDNA encoding full length IL-2 (amino acids 1-153). Transfected cells were selected for resistance to the selectable markers Hygromycin and Blasticidin to create a stable cell line that contained the IL-2-FL/Gaussia Luciferase cDNA insert whose expression was regulated under the T-REx™ system. The day before assay, cells were trypsinized and plated in 384-well tissue culture plates. The next day, compound dilutions in DMSO/media containing doxycycline were added to the wells and incubated at 37° C., 5% CO2.
as §3

[8] = Liver Microsome Stability Assay, monkey; type: in vitro ADME; conditions: monkey liver microsomes 1.0 mg/mL, 1.0 uM compound, 37° C., 1 mM NADPH
Method: as §1

[9] = system: multiple myeloma cell line NCI-H929; assay: H929 Cell Viability Assay; type: cell-based, human; conditions: for EC50: Homo sapiens
Method: as §2, with “NCI-H929” for “U266B1”, “cultured in Advanced RPMI 1640 media (Gibco®) supplemented with 6% fetal bovine serum, 2 mM Glutamine, and 1× Penicillin/Streptomycin. On the day of assay, cells were resuspended” for “cultured”, “Penicillin/Streptomycin and” for “Penicillin/Streptomycin. Cells were”
as §3

[10] = U-266, U266B1 cells, 48 hours, Celltiter-Glo, read-out: 48 hr U266 Viability Celltiter-Glo: Mean EC50
[11] = Flp-In 293 T-REx cells, 24 hours with doxycycline; Table 1; read-out: 24hr Dox Inducible IL6R(ss + 10)Gluc 293FRT/TO: Mean IC50
[12] = ratio of IC50s IL6R/PD1; Table 1
[13] = Flp-In 293 T-REx cells, 24 hours with doxycycline; Table 1; read-out: 24 hr Dox Inducible PD1ssGluc 293FRT/TO: Mean IC50
[14] = Flp-In 293 T-REx cells, 24 hours with doxycycline; Table 1; read-out: 24 hr Dox Inducible CD47(ss + 10)Gluc 293FRT/TO: Mean IC50
[15] = Flp-In 293 T-REx cells, 24 hours with doxycycline; Table 1; read-out: 24 hr Dox Inducible IL2FLGluc 293FRT/TO: Mean IC50
[16] = ratio of IC50s IL2/PD1; Table 1
[17] = NCI-H929 cells, 48 hours, Celltiter-Glo, read-out: 48 hr H929 Viability Celltiter-Glo: Mean EC50
[18] = U-266, 48 h, read-out: 48 hr U266 Viability Celltiter-Glo: Mean EC50 (nM)
[19] = read-out: 24hr Dox Inducible IL6R(ss + 10)Gluc 293FRT/TO: Mean IC50; Flp-In 293 T-REx cells, 24 hours with doxycycline; Table 1
[20] = read-out: 24 hr Dox Inducible PD1ssGluc 293FRT/TO: Mean IC50; Flp-In 293 T-REx cells, 24 hours with doxycycline; Table 1
[21] = read-out: 24 hr Dox Inducible CD47(ss + 10)Gluc 293FRT/TO: Mean IC50; Flp-In 293 T-REx cells, 24 hours with doxycycline; Table 1
[22] = read-out: 24 hr Dox Inducible IL2FLGluc 293FRT/TO: Mean IC50; Flp-In 293 T-REx cells, 24 hours with doxycycline; Table 1
[23] = NCI-H929, 48 h, read-out: 48 hr H929 Viability Celltiter-Glo: Mean EC50 (nM)

Compound | EC50 [3, 10] | IC50 [5, 11] | IC50 [6, 13] | IC50 (CD47(ss + 10)Gluc; [14]) | IC50 [7, 15] | EC50 [9, 17] | Liver Microsome Stability (Multiple Species): Mouse - % Remaining after 30 min w/ NADPH (%) [1] | Liver Microsome Stability (Multiple Species): Human - % Remaining after 30 min w/ NADPH (%) [2] | Liver Microsome Stability (Multiple Species): Rat - % Remaining after 30 min w/ NADPH (%) [4] | 24hr Dox Inducible IL6R(ss + 10)Gluc 293FRT/TO: IL6R/PD1 [5, 12] | 24 hr Dox Inducible IL2FLGluc 293FRT/TO: IL2/PD1 [7, 16] | Liver Microsome Stability (Multiple Species): Monkey - % Remaining after 30 min w/ NADPH (%) [8] | EC50 [3, 18] | IC50 [5, 19] | IC50 [6, 20] | IC50 (CD47(ss + 10)Gluc; [21]) | IC50 [7, 22] | EC50 [9, 23] | 48 hr H929 Viability Celltiter-Glo: Mean EC50 (nM) ([9]; NCI-H929 cells, 48 hours, Celltiter-Glo)
COc1cc(C(=O)Nc2nc(/C=C/c3ncn(C(C)C)c3Cl)cs2)n(Cc2ccnc(F)c2)c1 [Compound A2, (E)-N-(4-(2-(5-chloro-1-isopropyl-1H-imidazol-4-yl)vinyl)thiazol-2-yl)-1-((2-fluoropyridin-4-yl)methyl)-4-methoxy-1H-pyrrole-2-carboxamide] | > 25000 nM | 3.27 µM | 24 nM | 3.81 µM | 4.17 µM | > 25000 nM | 68% | 15% | 72% | 133 | 170 | 35% | – | – | – | – | – | – | –
CC(C(F)F)n1cnc(/C=C/c2csc(NC(=O)c3cc(Cl)cn3Cc3ccnc(F)c3)n2)c1 (stereo not drawn) [Compound A4, (E)-4-chloro-N-(4-(2-(1-(1,1-difluoropropan-2-yl)-1H-imidazol-4-yl)vinyl)thiazol-2-yl)-1-((2-fluoropyridin-4-yl)methyl)-1H-pyrrole-2-carboxamide] | – | – | – | – | – | – | 80% | 3% | 73% | 11 | 21 | 4% | > 25000 nM | 6.77 µM | 604 nM | 6.23 µM | 12.7 µM | > 23300 nM | –
O=C(Nc1nc(/C=C/c2cn(C(F)F)cn2)cs1)c1cc(Cl)cn1Cc1ccnc(F)c1 [Compound A5, (E)-4-chloro-N-(4-(2-(1-(difluoromethyl)-1H-imidazol-4-yl)vinyl)thiazol-2-yl)-1-((2-fluoropyridin-4-yl)methyl)-1H-pyrrole-2-carboxamide] | – | – | – | – | – | – | 73% | 4% | 42% | >57 | >57 | 2% | 16800 nM | > 25 µM | 436 nM | > 25 µM | > 25 µM | 10100 nM | –
COc1cc(C(=O)Nc2nc(/C=C/c3ncn(C(C)C)c3Cl)c(Cl)s2)n(Cc2ccnc(F)c2)c1 [Compound A6, (E)-N-(5-chloro-4-(2-(5-chloro-1-isopropyl-1H-imidazol-4-yl)vinyl)thiazol-2-yl)-1-((2-fluoropyridin-4-yl)methyl)-4-methoxy-1H-pyrrole-2-carboxamide] | – | – | – | – | – | – | 96% | 48% | 76% | 28 | 29 | 30% | > 25000 nM | 2.33 µM | 85 nM | 2.16 µM | 2.42 µM | – | I.A

Second part, led by results:

EC50 [3, 10] | IC50 [5, 11] | IC50 [6, 13] | IC50 (CD47(ss + 10)Gluc; [14]) | IC50 [7, 15] | EC50 [9, 17] | Compound | Liver Microsome Stability (Multiple Species): Mouse - % Remaining after 30 min w/ NADPH (%) [1] | Liver Microsome Stability (Multiple Species): Human - % Remaining after 30 min w/ NADPH (%) [2] | Liver Microsome Stability (Multiple Species): Rat - % Remaining after 30 min w/ NADPH (%) [4] | 24hr Dox Inducible IL6R(ss + 10)Gluc 293FRT/TO: IL6R/PD1 [5, 12] | 24 hr Dox Inducible IL2FLGluc 293FRT/TO: IL2/PD1 [7, 16] | Liver Microsome Stability (Multiple Species): Monkey - % Remaining after 30 min w/ NADPH (%) [8] | EC50 [3, 18] | IC50 [5, 19] | IC50 [6, 20] | IC50 (CD47(ss + 10)Gluc; [21]) | IC50 [7, 22] | EC50 [9, 23] | 48 hr H929 Viability Celltiter-Glo: Mean EC50 (nM) ([9]; NCI-H929 cells, 48 hours, Celltiter-Glo)
> 25000 nM | 1.89 µM | 30 nM | 1.86 µM | 2.02 µM | > 25000 nM | CC(C)n1cnc(/C=C/c2csc(NC(=O)c3cc(Cl)cn3Cc3ccnc(F)c3)n2)c1Cl [Compound A1] | 71% | 11% | 82% | 62 | 66 | 31% | – | – | – | – | – | – | –
> 20200 nM | 4.68 µM | 1760 nM | 15.2 µM | 12.2 µM | 4550 nM | O=C(Nc1nc(/C=C/c2cn(C(F)(F)F)cn2)cs1)c1cc(Cl)cn1Cc1ccnc(F)c1 [Compound A3, (E)-4-chloro-1-((2-fluoropyridin-4-yl)methyl)-N-(4-(2-(1-(trifluoromethyl)-1H-imidazol-4-yl)vinyl)thiazol-2-yl)-1H-pyrrole-2-carboxamide] | 61% | 6% | 21% | 3 | 7 | 4% | – | – | – | – | – | – | –
– | 0.922 µM | 112 nM | 0.838 µM | 1.43 µM | – | O=C(Nc1nc(/C=C/C2CCC(F)(F)CC2)cs1)c1cccn1Cc1ccnc(F)c1 [Compound B29, (E)-N-(4-(2-(4,4-difluorocyclohexyl)vinyl)thiazol-2-yl)-1-((2-fluoropyridin-4-yl)methyl)-1H-pyrrole-2-carboxamide] | – | – | – | 8 | 12.0 | – | – | – | – | – | – | – | –

From US20250171434A1, “SEC61 INHIBITORS AND USE THEREOF” (KEZAR LIFE SCIENCES, INC., priority 2022, published 2025)
